Experiments:
[1] = biological target: SNAP-hSPR (sepiapterin reductase, SPR) (Homo sapiens, UniProt P35270); experiment: biochemical; format: binding; details: terbium labelled SNAP-hSPR / SSZ labelled SNAP-EGFP; read-out: hTR-FRET IC50
[2] = system: BH4 levels in SK-N-BE (2) cells; experiment: SKN-N-BE (2) cellular assay, BH4 levels by LC-MS; format: cell-based; details: Homo sapiens, SKNBE2, read-out: SK-N-BE(2) IC50, SK-N-BE (2) cells, BH4 levels by LC-MS

Chain of SNAP-hSPR (sepiapterin reductase, SPR) (P35270 whole entry): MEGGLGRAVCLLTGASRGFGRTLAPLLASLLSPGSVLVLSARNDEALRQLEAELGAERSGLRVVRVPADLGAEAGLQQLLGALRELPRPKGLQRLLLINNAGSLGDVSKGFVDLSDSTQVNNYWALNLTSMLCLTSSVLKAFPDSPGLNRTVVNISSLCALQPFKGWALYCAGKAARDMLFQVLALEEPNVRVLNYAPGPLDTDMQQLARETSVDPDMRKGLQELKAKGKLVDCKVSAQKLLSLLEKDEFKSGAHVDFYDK

Row | SMILES | IC50 [1] [nM] | IC50 [2] [nM]
1 | Cc1c(C(=O)N2CCC(c3nc4ccccc4s3)CC2)ccnc1-c1nc2ccsc2c(=O)[nH]1 [Q-0605] | 200 | 10000
2 | Cc1c(C(=O)N2CCC(C(F)(F)F)CC2)cnn1-c1nn2c(F)ccc2c(=O)[nH]1 [Q-0606] | 2 | 51
3 | Cc1c(C(=O)N2CCC(c3nc4ccccc4s3)CC2)cnn1-c1nn2c(F)ccc2c(=O)[nH]1 [Q-0607] | 5 | 87
4 | Cc1c(C(=O)N2CCC(c3nc4ccccc4s3)CC2)cnn1-c1nn2cccc2c(=O)[nH]1 [Q-0608] | 2 | 56
5 | O=C(c1ccc(-c2nc3c(c(=O)[nH]2)CCC3)s1)N1CCC(C(F)(F)F)CC1 [Q-0609, 2-(5-(4-(trifluoromethyl)piperidine-1-carbonyl)thiophen-2-yl)-6,7-dihydro-3H-cyclopenta[d]pyrimidin-4(5H)-one] | 1 | 84
6 | Cc1c(C(=O)N2C[C@@H]3[C@H](C2)[C@@H]3C(N)=O)cnn1-c1nc2c(c(=O)[nH]1)CCC2 [Q-0610] | 10 | 10000
7 | Cc1[nH]c2ccccc2c1C1CCN(C(=O)c2cnn(-c3nc4c(c(=O)[nH]3)CCC4)c2C)CC1 [Q-0611] | 4 | 29
8 | COC(=O)C12CC(C(=O)N3CCN(C(=O)c4cnn(-c5nc6c(c(=O)[nH]5)CCC6)c4C)CC3)(C1)C2 [Q-0612] | 10 | 2600
9 | Cc1c(C(=O)N2CC3CC3(O)C2)cnn1-c1nc2c(c(=O)[nH]1)CCC2 (centres unmarked) [Q-0614] | 10 | 1600
10 | Cc1c(C(=O)N2CCC(c3cccc4[nH]ccc34)CC2)cnn1-c1nc2c(c(=O)[nH]1)CCC2 [Q-0615] | 3 | 19
11 | O=C(c1cnn(-c2nn3cc(F)cc3c(=O)[nH]2)c1)N1CCC(C(F)(F)F)CC1 [Q-0616, 6-fluoro-2-(4-(4-(trifluoromethyl)piperidine-1-carbonyl)-1H-pyrazol-1-yl)pyrrolo[1,2-f][1,2,4]triazin-4(3H)-one] | 2 | 100
12 | Cc1c(C(=O)N2CC3CC3(O)C2)cnn1-c1nc2sccc2c(=O)[nH]1 (centres unmarked) [Q-0617] | 20 | 3000
13 | COC(=O)c1cnn(-c2nn3c(F)ccc3c(=O)[nH]2)c1C1CC1 [Q-0618] | 1 | 25
14 | COC(=O)c1cnn(-c2nn3c(F)ccc3c(=O)[nH]2)c1C [Q-0619] | 3 | 300
15 | O=C(c1cnn(-c2nn3c(F)ccc3c(=O)[nH]2)c1C1CC1)N1CCC(C(F)(F)F)CC1 [Q-0620] | 1 | 100
16 | Cc1c(C(=O)N2CC3CC3(O)C2)cnn1-c1nc2ccsc2c(=O)[nH]1 (centres unmarked) [Q-0621] | 20 | 5200
17 | Cc1c(C(=O)N2CCC(C(F)(F)F)CC2)ccn1-c1nc2c(c(=O)[nH]1)CCC2 [Q-0622, 2-(2-methyl-3-(4-(trifluoromethyl)piperidine-1-carbonyl)-1H-pyrrol-1-yl)-6,7-dihydro-3H-cyclopenta[d]pyrimidin-4(5H)-one] | 1 | 58
18 | CCC1(C#N)CCN(C(=O)c2cnn(-c3nn4c(F)ccc4c(=O)[nH]3)c2C)CC1 [Q-0623] | 1 | 78
19 | Cc1c(C(=O)N2CCC(c3c[nH]c4ccccc34)CC2)cnn1-c1nn2c(F)ccc2c(=O)[nH]1 [Q-0624] | 2 | 32
20 | CCC(C#N)(CC)C1CCN(C(=O)c2cnn(-c3nc4c(c(=O)[nH]3)CCC4)c2C)CC1 [Q-0626] | 1 | 14
21 | Cc1c(C(=O)N2CCN(C(=O)C34CC(C(=O)O)(C3)C4)CC2)cnn1-c1nc2c(c(=O)[nH]1)CCC2 [Q-0627, 3-(4-(5-methyl-1-(4-oxo-4,5,6,7-tetrahydro-3H-cyclopenta[d]pyrimidin-2-yl)-1H-pyrazole-4-carbonyl)piperazine-1-carbonyl)bicyclo[1.1.1]pentane-1-carboxylic acid] | 9 | 10000
22 | Cc1c(C(=O)N2CCN(C(=O)C34CC(C(N)=O)(C3)C4)CC2)cnn1-c1nc2c(c(=O)[nH]1)CCC2 [Q-0630] | 9 | 10000

— US9963462B2 (priority 2015, dated 2018)
